The values that follow come from patent US6420371B1, “Quinazolinone-containing pharmaceutical compositions for prevention of neovascularization and for treating malignancies” (Madasit Medical Research Services & Development Co., Ltd., priority 1997, dated 2002).

One assay has as its system T50 bladder carcinoma. As to the kind of experiment: Inhibition of in vivo growth of T50 bladder carcinoma in C3H mice. To be noted: for tumor volume (group mean): Halofuginone containing diet 5 mg/kg; for T50 Tumor Size: individual mice, diet containing 5 mg/kg Halofuginone, day 17. The protocol: C3H mice were divided into two groups (6 mice each). The experimental group received a diet containing 5 mg/kg of Halofuginone 3 days prior to the injection of T50 bladder carcinoma cells and during 2 weeks after. […] The right side received 0.4 * 10^5 cells, and the left side received 2 * 10^5 cells. The tumor size was estimated by measurement of tumor length in two directions, using the formula V=LW^2/2, where V is volume, L is length and W is width. At the end of the experiment at day 17, the mice were weighed, the tumors were excised and a sample of the tumor tissue was fixed and processed for histological examination.

In another assay the test system is EHS sarcoma. As to the kind of experiment: Inhibition of in vivo growth of EHS tumor in C57BL/6 mice. The protocol:
Animals bearing Engelbreth-Holm-Swarm (EHS) tumors were sacrificed and the tumor tissue was excised and minced under aseptic conditions. The EHS tumor is characterized by a large amount of basement membrane components. A suspension of the tumor tissue in 0.2 ml of PBS was injected subcutaneously in the dorsal posterior region of C57BL/6 male mice. The mice were divided into two groups of 10 mice each. The animals of the experimental group were fed with a diet containing 5 mg/kg Halofuginone for 3 days prior to tumor injection and during 3 weeks after. The tumor size was estimated by measurement of tumor length in two directions, using the formula V=LW^2/2. On the final day of the experiment, i.e., 20 days after tumor injector, the mice were weighed the tumors were exceed and a sample of the tumor tissue was fixed and processed for histological examination.

For assay [1], the system named is corneal neovascularization. Briefly: Murine corneal angiogenesis model (bFGF pellet). It counts as in vivo, mice. Further details: VL (maximum vessel length of the neovascularization zone): unit not given here. Conditions: 2 μg/mouse/day i.p. for 5 days. The protocol:
A murine corneal angiogenesis model was used to evaluate the inhibitory effect of Halofuginone in vivo. The angiogenic factor bFGF was applied into a corneal pocket in a pellet made of a slow release polymer, as described below, and Halofuginone (2 μg/mouse/day) was administered i.p. for 5 consecutive days. The pellets were made of the slow-release polymer Hydron (polyhydroxyethylmethacrylate [polyHEMA], Interferon Sciences, N.J.) containing sucralfate alone, or sucralfate and bGFG. A suspension of sterile saline 10 μg recombinant bFGF plus 10 mg of sucralfate was prepared and speed vacuumed for 5 minutes. To this suspension, 10 μl of 12% Hydron in ethanol was added. The suspension was then deposited onto an autoclave sterilized, 15×15 mm piece of nylon mesh (TETKO, 3-300/50, approximate pore size 0.4×0.4 mm) and embedded between the fibers resulting in a grid of 10×10 squares. Both sides of the mesh were then covered with a thin layer of Hydron to hydrophobically stabilize the pellet during implantation. These layers were allowed to dry on a sterile petri dish for 30 minutes. Subsequently, the fibers of the mesh were pulled apart under a microscope, and about 30-40 uniformly sized pellets of 0.4×0.2×0.2 mm, containing approximately 80-100 ng bGFG per pellet, were collected. Such pellets can be stored frozen at −20° C. for several weeks without loss of bioactivity. C57B⅙ mice of about 7-9 weeks of age were anesthetized with methoxyflurane. The eyes were topically anesthetized with 0.5% proparacaine, and the globe was proposed with a jeweler's forceps. A central, intrastromal linear keratotomy of approximately 0.6 mm length was performed with a surgical blade and a lamellar micropocket was dissected towards the temporal limbus. The temporal extent of the packet was within 0.7-1.0 mm of the limbus. A single pellet was then placed on the corneal surface at the base of the pocket with jeweler's forceps, and using one arm of the forceps, the pellet was advanced toward the temporal end of the pocket. Antibiotic ointment (erythromycin) was applied once to the operated eye, not only to prevent infection, but also to decrease irritation of the irregular ocular surface. […] On post-operative day 5, mice were anesthetized with methoxyflurane, the eyes were proptosed, and the maximum vessel length (VL) of the neovascularization zone extending from the base of the limbal vascular plexus toward the pellet was measured with a linear reticule through the slit lamp. The contiguous circumferential zone of neovascularization (CH) was measured as clock hours with a 360 degree reticule. […] The area of neovascularization was calculated according to the following formula: [formula] where A is area, CH is contiguous circumferential zone of neovascularization and VL is maximal vessel length.

Assay [2] concerns human leiomyosarcoma tumor cells. As to the kind of experiment: Proliferation ([3H]thymidine incorporation) of human leiomyosarcoma tumor cells. It counts as cell-based. The protocol:
Samples of human leiomyosarcoma tumors were obtained from women undergoing surgical hysterectomy, as described [R. S. Mangrulker, et al., ibid.]. Minced tissue was placed into 20 ml cold homogenization buffer: 1 M NaCl, 10 mM Tris (pH 7.4), 1 mM EDTA, 1 mM benzamidine, 0.1% CHAPS, 0.01% Aprotinin (Sigma), 10 μg/ml leupeptin, 1 mM AEBSF [R. S. Mangrulker, et al., ibid]. Samples were homogenized for 2 min and centrifuged at 12000 a g for 60 min at 4° C. The supernatants were diluted 1:5 with 10 mM Tris (pH 7.4) to a final volume of 100 ml and filtered with 0.45 μm nylon fibers. Cells were plated and maintained in DMEM plus 10% calf serum. The cells remained viable over a number of passages but were used at passages 2 or 3. For proliferation assays, cells were plated in 96-well plates at 10,000 cells/well an 200 μl medium (DMEM with 4.5 G/L glucose, 10% calf serum. 1% glutamine, 1% penicillin/streptomycin) and incubated 2 days until confluent. […] The medium was changed to DMEM with 0.5%calf serum, 1 μM insulin and 5 μM transferrin. After 24 h, the samples (5-10 μl) were added and after an additional 24 h, [^3H]thymidine (1 μCi/well) was added to each well. After 36-48 h incubation, the cells were fixed with methanol, and the DNA was precipitated with 5% trichloroacetic acid. The cells were lysed with 150 μl/well of 0.3 N NaOH, transferred to scintillation vials, and counted on a β-counter. […] The effect of Halofuginone on proliferation of HB-EGF (Heparin-Binding Epidermal Growth Factor) and serum-stimulated leiomyosarcoma cells was then examined. The leiomyosarcoma tumor cells were growth-arrested by 48 h incubation in medium containing 0.5% FCS. The cells were then exposed (24 h) to either 10% FCS or 10 ng/ml HB-EGF in the absence or presence of 10 ng/ml Halofuginone. [^3H]thymidine was then added and DNA synthesis measured 36 h later.
A general note: Uptake of a labelled nucleoside into DNA is a usual measure of proliferation.

Where [3] appears, read: individual mice, post-operative day 5.

Values joined by “and” are separate entries in the source; they are usually repeats but may differ in a detail not shown here. Equal entries are not always repeated.

Regarding `O=C(CC1NCCCC1O)Cn1cnc2cc(Br)c(Cl)cc2c1=O` (centres unmarked) [Halofuginone], the “reduction of tumor size compared to control mice” value in the assay on T50 bladder carcinoma (C3H mice, diet 5 mg/kg Halofuginone) is 70-80%; in the assay on EHS sarcoma (C57BL/6 mice, diet 5 mg/kg Halofuginone), “about 75%”. In addition, the “overall weight of mice” value in the assay with T50 bladder carcinoma (Halofuginone treated C3H mice, lower due to lower tumor burden) amounted to 24 ± 3.1 g. The “tumor volume (group mean)” value in the assay on T50 bladder carcinoma (high tumor cell dose) stood at 1.0±0.92 cm^3; in the assay with T50 bladder carcinoma (lower tumor cell dose), 0.29±0.28 cm^3; in the assay on EHS sarcoma (C57BL/6 mice fed Halofuginone 5 mg/kg diet), 1.72±1.85 cm^3. For the same compound, the “T50 Tumor Size” value in the assay with T50 bladder carcinoma (0.4 * 10^5 cells s.c.) was 0.730 cm^3 and 0.510 cm^3 and 0.036 cm^3 and 0.064 cm^3 and 0.150 cm^3; in the assay on T50 bladder carcinoma (2 * 10^5 cells s.c.), 2.0 cm^3 and 1.1 cm^3 (2×) and 0.7 cm^3 and 0.1 cm^3. In the assay with EHS sarcoma (Halofuginone-fed C57BL/6 mice, nearly normal weight), this compound came in with a weight of mice of 19.7 ± 0.47 g. Moreover, the “EHS Tumor Size” value in the assay on EHS sarcoma (individual mice, diet 5 mg/kg Halofuginone, 20 days after tumor injection) is 0 cm^3 (2×) and 2.2 cm^3 and 0.04 cm^3 and 6.5 cm^3 and 3.0 cm^3 and 1.3 cm^3 (2×) and 1.2 cm^3 and 1.7 cm^3. Moreover, the “inhibition of neovascularization area vs control” value in assay [1] is “about 29%”. In addition, the “average area of neovascularization” value in assay [1] (n=7, calculated from CH and VL) is 1.90 mm^2. In assay [1] (setting [3]), the “CH (contiguous circumferential zone of neovascularization)” value is 3.5 clock hours and 3 clock hours (3×) and 2.5 clock hours and 4 clock hours and 1 clock hours. For the same compound, the “VL (maximum vessel length of the neovascularization zone)” value in assay [1] (setting [3]) is 1 (3×) and 1.1 and 1.2 and 0.9. In assay [2] (10 ng/ml HB-EGF, 10 ng/ml Halofuginone, growth-arrested cells), the “inhibition of cell proliferation induced by HB-EGF” value is “complete inhibition”. In addition, the “inhibition of cell proliferation induced by serum” value in assay [2] (10% FCS, 10 ng/ml Halofuginone, growth-arrested cells) is given as “complete inhibition”. Moreover, the inhibition (in general, the relative decrease from the control value, in per cent) at 0.0025 µg/mL in assay [2] (Homo sapiens, 2.5 ng/ml Halofuginone (FIG. 11A)) is 60 to 70%.
